The NIST ThermoML archive (doi:10.1016/j.jct.2012.09.012)

Test: xn = mol fraction of the nth substance listed
Details: Liquid, Vibrating tube method

CC1=CC[C@H]2C[C@@H]1C2(C)C [(S)-2-pinene] + C=C1CCC2CC1C2(C)C
mass density [kg/m3]
Details	x1 = 0.1044	x1 = 0.1926	x1 = 0.3036	x1 = 0.3949	x1 = 0.502	x1 = 0.6052	x1 = 0.7022	x1 = 0.7983	x1 = 0.9028	x1 = 1
298.15 K, 30000 kPa	–	–	–	–	–	879.7	878.8	877.6	876.4	875.3
298.15 K, 35000 kPa	888.3	887.3	886.1	885.1	884	882.9	882	880.8	879.7	878.6
298.15 K, 40000 kPa	891.1	890.2	889.1	888	887.1	886	885.1	884	882.9	881.9
313.15 K, 20000 kPa	868	867	865.9	864.9	863.6	862.6	861.4	860.3	859	858
313.15 K, 25000 kPa	871.4	870.3	869.2	868.2	867	865.8	864.7	863.6	862.4	861.3
313.15 K, 30000 kPa	874.6	873.5	872.4	871.4	870.2	869.1	868	866.9	865.7	864.7
313.15 K, 35000 kPa	877.8	876.7	875.5	874.6	873.4	872.3	871.2	870.2	869.1	867.9
313.15 K, 40000 kPa	881.1	879.9	878.7	877.8	876.6	875.5	874.5	873.5	872.4	871.3
